{
  "source": "paper PMC10352257",
  "about": "“In vivo effects of the alpha-synuclein misfolding inhibitor minzasolmin supports clinical development in Parkinson’s disease” (NPJ Parkinson's Disease, 2023)",
  "key": {"Line 61 transgenic mice [1]": {"system": "Line 61 transgenic mice", "test": "Tolerability in the 3-month administration study", "type": "in vivo", "details": "1 or 5 mg/kg i.p. once daily for 3 months; no apparent adverse effects on subject health", "text": "A transgenic mouse model of Parkinson’s disease overexpressing human wild-type ASYN under the murine Thy-1 promoter on a mixed C57Bl/6 background was used in the present studies (commonly referred to Line 61)[49]. The Line 61 transgenic mouse model of Parkinson’s disease develops extensive accumulation of ASYN in areas relevant to Parkinson’s disease[49]–[51], neurodegeneration (as evidenced by loss of tyrosine hydroxylase[52],[53] and dopamine transporter immunoreactivity[18] in the striatum), inflammation, and both motor and non-motor functional deficits. Multiple cohorts of mice were transferred from the University of California, San Diego to a Neuropore-funded AAALAC-accredited vivarium facility per a laboratory service agreement between Neuropore Therapies, Inc. and the laboratory of Dr. Eliezer Masliah under institutional animal care and use committee (IACUC) Protocol S02221. All in vivo testing was conducted by Neuropore personnel under Explora Biosciences animal care and use protocol (ACUP) number E15-016-2. […]. Animals received free access to food and water prior to the experiment. The vivarium ambient room temperature was monitored daily and kept within a range of 68–72 degrees Fahrenheit. Animals were kept on a 12:12 diurnal light cycle, with lights on at 0600. […]"}, "Line 61 transgenic mice [2]": {"system": "Line 61 transgenic mice", "test": "Round beam traversal test (composite gait score), 3-month administration study", "type": "in vivo, mouse", "details": "for round beam composite score, Kruskal-Wallis mean rank: Line 61 tg, Line 61 tg/Vehicle 6.611, Non-tg/Vehicle 34.25", "text": "A transgenic mouse model of Parkinson’s disease overexpressing human wild-type ASYN under the murine Thy-1 promoter on a mixed C57Bl/6 background was used in the present studies (commonly referred to Line 61)[49]. The Line 61 transgenic mouse model of Parkinson’s disease develops extensive accumulation of ASYN in areas relevant to Parkinson’s disease[49]–[51], neurodegeneration (as evidenced by loss of tyrosine hydroxylase[52],[53] and dopamine transporter immunoreactivity[18] in the striatum), inflammation, and both motor and non-motor functional deficits. Multiple cohorts of mice were transferred from the University of California, San Diego to a Neuropore-funded AAALAC-accredited vivarium facility per a laboratory service agreement between Neuropore Therapies, Inc. and the laboratory of Dr. Eliezer Masliah under institutional animal care and use committee (IACUC) Protocol S02221. All in vivo testing was conducted by Neuropore personnel under Explora Biosciences animal care and use protocol (ACUP) number E15-016-2. Three-month-old male transgenic and age-matched non-transgenic littermate control mice were used and housed up to 5 per cage. Animals received free access to food and water prior to the experiment. The vivarium ambient room temperature was monitored daily and kept within a range of 68–72 degrees Fahrenheit. […]\nLine 61 transgenic mice have robust and visually apparent deficits in gait as evaluated in the round beam traversal test by 6 months of age that are improved by treatment with small molecule compounds including ASYN misfolding inhibitors[17],[18] and the molecular tweezer compound CLR01[56]. […] Videotapes were then scored by a secondary evaluator using a newly developed composite rating system for specific observed features of Line 61 gait during the round beam assessment. […] Scores were analyzed by nonparametric Kruskal–Wallis one-way ANOVA with key comparisons defined a priori, first to test for a phenotypic difference between vehicle-treated groups and then to test for minzasolmin-related treatment effects in Line 61 transgenic mice. […]"}},
  "note": "“Also recorded” adds a separate entry of the source.",
  "data": [
    {"compound": "CCCC[C@H](Cc1c[nH]c2ccccc12)NC(=O)c1cnc(N2CCN(C)CC2)s1", "note": "[minzasolmin]", "values": [
      {"measurement": "tolerability of treatments for the duration of the experiment", "setting": "Line 61 transgenic mice [1]", "value": "well tolerated"},
      {"measurement": "effect on round beam composite score (gait) vs vehicle-treated Line 61 transgenic mice", "setting": "Line 61 transgenic mice [2]; 1 mg/kg, after 70 days of treatment, P < 0.01", "value": "improved; also recorded: attenuated"},
      {"measurement": "round beam composite score, Kruskal-Wallis mean rank", "setting": "Line 61 transgenic mice [2]; 1 mg/kg", "value": 21.77},
      {"measurement": "round beam composite score, Kruskal-Wallis mean rank", "setting": "Line 61 transgenic mice [2]; 5 mg/kg", "value": 16.80}
    ]}
  ]
}
